The values below come from PubChem BioAssay AID1159563 (GlaxoSmithKline (GSK), 2015).

Molecules are shown by their SMILES. pIC50: −log10 of the molar value. Active and inactive are the calls of the source. No rule for the calls is given here. Some results are limits rather than exact numbers.

This experiment concerns HepG2 cytotoxicity. The experiment is described as follows: HepG2 cell cytotoxicity, cytotoxicity control (AID 1159563).

What is called pIC50 is the negative decadic logarithm of the IC50, by convention in mol/L. With `CC(C)Nc1nc(Cl)nc2ccccc12`, the pIC50 was 4.40.

For orientation: IC50 means the concentration needed to halve the response being measured. Take `CCc1cccc(-n2nc(OCC(=O)NC3CCCC3)c3cccnc32)c1`: the IC50 is > 100 µM (inactive).

For `Cc1cc(Oc2cc(Cl)c(Cl)cc2Cl)n2ncnc2n1`, the pIC50 is 4.49.

Regarding `COc1cc(F)c2ncc(F)c(CCN3CC[C@H](NCc4cc5c(cn4)OCS5)[C@@H](O)C3)c2c1`, the pIC50 is 4.30.

In the case of `Cc1cc(NC(=O)C2CCCCC2)n(-c2nc3c(c(=O)[nH]2)CCC3)n1`, the pIC50 is 4.30.

Consider `CN(Cc1ccccc1)Cc1nnnn1C1CCN(Cc2ccc(-n3ccnc3)cc2)CC1`, for which the IC50 is > 100 µM (inactive).

`Cc1ccc(NC(=O)c2ccnc(N3CCCC3)c2)cc1-c1ccsc1C(N)=O`: the IC50 is > 100 µM (inactive).

As for `Cc1cc(-c2cccc3ccccc23)nc2nc(N)nc(N)c12`, the negative logarithm of the IC50 (pIC50) was 4.30.

Regarding `CCN(CC)c1nc(N(C)C)nc2c1CN(Cc1ccccc1)CC2`, the pIC50 was 4.20.

As to `CCNc1cc(-c2ccccn2)nc(Nc2ccc(OC)cc2)n1`, the pIC50 is 4.40.

For the compound `O=C(Nc1ccc(Br)cn1)c1ccc(Cn2cnc([N+](=O)[O-])n2)cc1`, the IC50 is > 100 µM (inactive).

Consider `Cc1[nH]n2c(=O)c3c(nc2c1-c1ccc(Cl)cc1)CCCC3`, for which the IC50 was > 100 µM (inactive).

As to `Cc1ccc(S(=O)(=O)Nc2ccc(CN3CCN(C(=O)c4cccc(C)c4)CC3)cc2)cc1`, the IC50 is > 100 µM (inactive).

Take `Cc1nn(-c2nc3ccccc3s2)c2c1C(c1ccc(OCC(N)=O)cc1)SCC(=O)N2` (stereo not drawn): the IC50 was > 100 µM (inactive).

`O=C(CN(c1cccc(C(F)(F)F)c1)S(=O)(=O)c1ccc(Cl)cc1)NCc1ccc(F)c(F)c1`: the IC50 was > 100 µM (inactive).

In the case of `O=C(CCc1ccc(-c2ccccc2)o1)N1CCN(c2ccc(O)cc2)CC1`, the IC50 was > 100 µM (inactive).

Consider `NS(=O)(=O)c1ccc(Nc2ncc3cccc(OC4CCNCC4)c3n2)cc1`, for which the IC50 is > 100 µM (inactive).

With `CN(Cc1nc2c(C(=O)N3CCN(Cc4ccccc4)CC3)cccc2[nH]1)C1CCCc2cccnc21` (stereo not drawn), the pIC50 was 4.89.

`O=C(Nc1ncc([N+](=O)[O-])s1)C1CC1`: the IC50 is > 100 µM (inactive).

For the compound `COc1ccc(CN(C)Cc2ccncc2)cc1-c1ccc(S(=O)(=O)NC2CCC2)s1`, the IC50 was > 100 µM (inactive).

As to `O=C(Cn1cnc([N+](=O)[O-])n1)Nc1ccc(Cl)cc1C(=O)c1ccccc1`, the IC50 was > 100 µM (inactive).

With `Cc1cc(=O)n2nc(Oc3ccc(C#N)cc3Cl)sc2n1`, the pIC50 was 4.40.

As for `CCN(CC)S(=O)(=O)c1ccc(C(=O)Nc2cc(C)nn2-c2nc(C)c(C)c(=O)[nH]2)cc1`, the IC50 is > 100 µM (inactive).

`Oc1c(-c2n[nH]c(Cc3ccc(Cl)cc3)n2)ncc2cccnc12`: the pIC50 is 4.40.

With `CC(=O)Nc1ccc(CN2CCC(N3CC(c4ccccc4)(c4ccccc4)OCC3=O)CC2)cc1`, the pIC50 is 4.10.

Consider `CC1CCCCN1C(=O)NCCc1coc(-c2ccc(F)cc2)n1` (stereo not drawn), for which the IC50 is > 100 µM (inactive).

As for `CCCCn1nnnc1CSc1nc(C)cc(C)c1C#N`, the IC50 was > 100 µM (inactive).

Consider `O=C(NNC(=O)c1ccccn1)c1ccc(-c2ccccc2)cc1`, for which the IC50 was > 100 µM (inactive).

Regarding `N#Cc1cccc(CNc2ccc(-c3cnn(CC4CC4)c(=O)c3C#N)cc2)c1`, the IC50 is > 100 µM (inactive).

Regarding `Nc1nc(-c2ccccn2)nc(-n2nc(-c3ccccc3)cc2N)n1`, the pIC50 is 5.00.

In the case of `CCOC(=O)c1noc(N)c1-c1ccccc1`, the IC50 is > 100 µM (inactive).

As to `O=C(NCCc1csc(-c2ccc(F)cc2)n1)c1ccco1`, the IC50 was > 100 µM (inactive).

For `O=C(c1ccc(Cl)cc1)c1ccc(OC(=O)N2CCOCC2)cc1`, the IC50 is > 100 µM (inactive).

Regarding `Cn1c(CN2CCN(c3ncc(C(F)(F)F)cc3Cl)CC2)nc2ccncc21`, the IC50 is > 100 µM (inactive).

Turning to `COc1cc(C(C)C)c(S(C)(=O)=O)cc1C(=O)N1CCN(c2ccccc2Cl)CC1`, the IC50 is > 100 µM (inactive).

As to `O=c1ccc2ccc(F)c3c2n1C[C@H]3CN1CCC(NCc2cc3ccccc3o2)CC1`, the pIC50 is 4.40.

For the compound `O=C1OCc2ccc(Nc3nccc(-c4cnn5ncccc45)n3)cc21`, the IC50 was > 100 µM (inactive).

Regarding `CCCn1c(NC(=O)Cc2ccc(Cl)cc2)nc2ccccc21`, the IC50 was > 100 µM (inactive).

Take `OC[C@@H](Nc1nccc(-c2c(-c3ccc(F)cc3)ncn2C2CCNCC2)n1)c1ccccc1`: the pIC50 is 4.00.

Consider `COc1ccc(C(=O)Nc2c(C)nn(COc3cccc(C(F)(F)F)c3)c2C)cc1`, for which the IC50 was > 100 µM (inactive).

For the compound `COc1ccc2ncc(=O)n(CCN3CCOC(CNCc4ccc(C(F)(F)F)cc4F)C3)c2n1` (stereo not drawn), the IC50 is > 100 µM (inactive).

On to `CNc1cc(Cn2c(C(=O)c3cc(C)cc(Cl)c3)c(C(C)C)c(=O)[nH]c2=O)ccn1`, for which the IC50 is > 100 µM (inactive).

With `CC(C)C[C@H](NC(=O)c1ccc(-c2ccccc2)o1)C(=O)NC1(C#N)CC1`, the IC50 is > 100 µM (inactive).

With `COc1cc(OC)cc(C(=O)N[C@@H](CC(C)C)C(=O)NC2(C#N)CC2)c1`, the IC50 was > 100 µM (inactive).

For the compound `CN(CC1CCCO1)S(=O)(=O)c1ccc(C(=O)Nc2nc(-c3ccccn3)cs2)cc1` (stereo not drawn), the pIC50 was 4.20.

With `O=C(CC1(O)C(=O)N(Cc2cccs2)c2ccc(Br)cc21)c1cccnc1` (stereo not drawn), the pIC50 was 4.20.

With `CCOc1ccc(NC(=O)C=Cc2ccc(CC)o2)cc1`, the pIC50 is 4.10.

As to `O=C(NC1CCN(C2Cc3ccc(NS(=O)(=O)c4cc(F)cc(F)c4)cc3C2)CC1)C1CC1` (stereo not drawn), the IC50 is > 100 µM (inactive).

As to `COc1ccc([N+](=O)[O-])cc1NC(=O)c1cc(Cl)ccc1O`, the pIC50 was 5.00.

Take `CN(C)CCN(C)Cc1ccc(F)cc1NS(=O)(=O)c1ccc(Cl)c(Cl)c1`: the pIC50 was 4.40.

As for `CS(=O)(=O)c1ccc(Nc2nccc(Nc3n[nH]c4ccc(F)cc34)n2)c(F)c1`, the pIC50 is 4.10.

As for `CN(C)CCN(C)Cc1ccc(Cl)cc1NS(=O)(=O)c1ccc(Cl)c(Cl)c1`, the pIC50 is 4.49.

Take `Oc1c(-c2n[nH]c(CCc3ccccc3)n2)ncc2cccnc12`: the pIC50 is 4.40.

In the case of `CCC(CC)C(=O)Nc1cccc(C(=O)Nc2nnc(C3CCCCC3)s2)c1`, the IC50 was > 100 µM (inactive).

As to `CN(Cc1cc2ccccc2s1)c1ncc2c(N)nc(N)nc2n1`, the pIC50 was 4.40.

For the compound `Cc1ccc2ccc(C(Nc3ccccn3)c3cccnc3)c(O)c2n1` (stereo not drawn), the pIC50 is 4.70.

As for `O=C(NCc1nnc2n1CCCCC2)c1csc(-c2ccccc2)n1`, the IC50 is > 100 µM (inactive).

As to `CCS(=O)(=O)Nc1ccc(C2=NN(C(=O)c3cccs3)C(c3ccccc3OC)C2)cc1` (stereo not drawn), the IC50 is > 100 µM (inactive).

As for `O=C(NCc1ccncc1)c1ccccc1N1CCCN(C(=O)Cc2ccc(F)c(F)c2)CC1`, the IC50 was > 100 µM (inactive).

Consider `O=C1CN(C2CCCc3c(OCc4ccncc4)cccc32)C(=O)N1C1CCCCC1` (stereo not drawn), for which the IC50 was > 100 µM (inactive).

Turning to `N#Cc1ccc(C(=O)Nc2cccc(-c3cccc(CN4CCC(O)CC4)c3)c2)cc1`, the pIC50 is 4.40.

With `OC1CCC(Nc2nccc(-c3sc(C4CCOCC4)nc3-c3ccc(F)c(F)c3)n2)CC1` (stereo not drawn), the pIC50 was 4.60.

Consider `Cc1cc(NC(=O)c2ccc([N+](=O)[O-])s2)ccc1Br`, for which the pIC50 is 4.40.

As to `O=C(NCCc1ccn(-c2ccccc2)n1)C1CCCCC1`, the IC50 is > 100 µM (inactive).

For `CCn1c(-c2nonc2N)nc2c([C@@H](C)O)ncc(O[C@H](CN)c3ccccc3)c21`, the pIC50 is 4.10.

As to `CC(C)(C)C(=O)NCCc1csc(-c2ccc(F)cc2)n1`, the IC50 is > 100 µM (inactive).

`CC(C)(C)Nc1nc(Nc2ccc3c(c2)CS(=O)(=O)C3)nc2[nH]ccc12`: the pIC50 is 4.49.

For `COc1ccccc1-n1c(SCC(=O)Nc2ccc3c(c2)OCO3)nc2c(c1=O)SCC2`, the IC50 was > 100 µM (inactive).

For the compound `c1ccc(Nc2nc(-c3ccccn3)cc(N3CCOCC3)n2)cc1`, the IC50 was > 100 µM (inactive).

For `O=C(c1ccc(O)c(Cl)c1)N1CCN(c2cnccn2)CC1`, the IC50 is > 100 µM (inactive).

As to `COc1ccc(-c2nc3ncccc3o2)cc1NC(=O)c1cccs1`, the IC50 was > 100 µM (inactive).

On to `COc1cc(OC)cc(C(NS(=O)(=O)c2ccc(Cl)c(C(F)(F)F)c2)c2nccn2C)c1` (stereo not drawn), for which the IC50 was > 100 µM (inactive).

With `COc1cccc(S(=O)(=O)Nc2ccc3c(c2)CC(N2CCC(NC(=O)C4CC4)CC2)C3)c1` (stereo not drawn), the IC50 was > 100 µM (inactive).

In the case of `CCN(CC)c1nc(Nc2ccncc2)nc2ccccc12`, the pIC50 is 4.30.

As for `COc1ccc(NC(=O)c2ccc(NC(=O)CN(c3ccccc3C)S(C)(=O)=O)cc2)cc1`, the pIC50 was 4.40.

For the compound `O=C(NCC1CCCCC1)c1cc(=O)c2ccccc2o1`, the pIC50 is 4.60.

As for `Cc1ccc(NC(=O)c2ccc(Cl)c(NC(=O)c3ccc([N+](=O)[O-])cc3)c2)cc1`, the IC50 was > 100 µM (inactive).

For the compound `CC(C)CC(=O)Nc1cc(C2CC2)nn1-c1nc2c(c(=O)[nH]1)CCCC2`, the IC50 is > 100 µM (inactive).

Take `COc1ccc(C(C)(C)C)cc1S(=O)(=O)n1ccnc1`: the IC50 is > 100 µM (inactive).

Regarding `CCN(CC)c1ncc(C(=O)c2ccc([N+](=O)[O-])o2)s1`, the pIC50 is 4.80.

As to `COc1ccc([N+](=O)[O-])cc1NC(=O)Nc1cccc(Cl)c1`, the IC50 was > 100 µM (inactive).

Consider `O=C(CCCn1cnc([N+](=O)[O-])n1)Nc1cccc(Cl)c1`, for which the IC50 was > 100 µM (inactive).

For `Cc1nn2c(NCCCO)c3c(nc2c1-c1cccs1)CCC3`, the IC50 was > 100 µM (inactive).

Turning to `CN(Cc1cccnc1)Cc1ccc(N2CCN(C(=O)C3(c4ccc(Cl)cc4)CC3)CC2)nc1`, the IC50 is > 100 µM (inactive).

In the case of `O=C(NC(CO)c1ccc(F)cc1)c1ccc(-c2c[nH]c3ncccc23)s1` (stereo not drawn), the pIC50 is 4.40.

For the compound `CC(C)CC(=O)NC(c1cccs1)c1ccc2cccnc2c1O` (stereo not drawn), the IC50 is > 100 µM (inactive).

Turning to `O=C(Cn1cnc2cc([N+](=O)[O-])ccc2c1=O)NCCc1ccc(Cl)cc1Cl`, the IC50 was > 100 µM (inactive).

For the compound `COc1ccccc1C(=O)Nc1nnc(-c2ccc3c(c2)OCO3)s1`, the IC50 is > 100 µM (inactive).
